In PubChem BioAssay (NCI):
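Grown in 96-well plates, cells were treated for 48 hours with each compound at five concentrations. Insufficient inhibition: endpoint recorded as highest concentration tested. GI50 is the concentration that inhibits growth by half. The concentration for full growth arrest is given as TGI.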

Legend:
Assay in all cases: NCI tumour cell line growth inhibition, 48 h; in the data active = GI50 below about 0.43 µM; inactive = the rest
T-47D breast = system: T-47D breast
A549 NSCLC = system: A549 NSCLC
UACC-257 melanoma = system: UACC-257 melanoma
SR leukemia = system: SR leukemia
TK-10 renal = system: TK-10 renal
RXF 393 renal = system: RXF 393 renal
HOP-92 NSCLC = system: HOP-92 NSCLC
PC-3 prostate = system: PC-3 prostate
RPMI-8226 leukemia = system: RPMI-8226 leukemia
UO-31 renal = system: UO-31 renal
IGROV1 ovarian = system: IGROV1 ovarian
HT29 colon = system: HT29 colon
NCI-H23 lung = system: NCI-H23 lung
SW-620 colon = system: SW-620 colon
SN12C renal = system: SN12C renal
NCI-H226 lung = system: NCI-H226 lung
M14 melanoma = system: M14 melanoma
LOX IMVI melanoma = system: LOX IMVI melanoma
SK-OV-3 ovarian = system: SK-OV-3 ovarian
OVCAR-3 ovarian = system: OVCAR-3 ovarian
NCI-H460 lung = system: NCI-H460 lung
U251 CNS = system: U251 CNS
UACC-62 melanoma = system: UACC-62 melanoma
SF-539 CNS = system: SF-539 CNS
KM12 colon = system: KM12 colon
HCT-15 colon = system: HCT-15 colon
COLO 205 colon = system: COLO 205 colon
SF-268 CNS = system: SF-268 CNS
HOP-62 NSCLC = system: HOP-62 NSCLC
OVCAR-8 ovarian = system: OVCAR-8 ovarian
DU-145 prostate = system: DU-145 prostate
HS 578T breast = system: HS 578T breast
786-0 renal = system: 786-0 renal
HCT-116 colon = system: HCT-116 colon
HCC-2998 colon = system: HCC-2998 colon
MCF7 breast = system: MCF7 breast
SNB-19 CNS = system: SNB-19 CNS
SK-MEL-5 melanoma = system: SK-MEL-5 melanoma
OVCAR-4 ovarian = system: OVCAR-4 ovarian
BT-549 breast = system: BT-549 breast
K-562 leukemia = system: K-562 leukemia
ACHN renal = system: ACHN renal
MDA-MB-231 breast = system: MDA-MB-231 breast
HL-60(TB) leukemia = system: HL-60(TB) leukemia
OVCAR-5 ovarian = system: OVCAR-5 ovarian
SF-295 CNS = system: SF-295 CNS
EKVX NSCLC = system: EKVX NSCLC
MOLT-4 leukemia = system: MOLT-4 leukemia
MDA-MB-435 = system: MDA-MB-435
CAKI-1 renal = system: CAKI-1 renal
SK-MEL-2 melanoma = system: SK-MEL-2 melanoma
NCI-H522 lung = system: NCI-H522 lung
SK-MEL-28 melanoma = system: SK-MEL-28 melanoma
A498 renal = system: A498 renal
CCRF-CEM leukemia = system: CCRF-CEM leukemia
MALME-3M melanoma = system: MALME-3M melanoma

COc1cc(-n2cncc2-c2ccc3ccccc3c2)cc(OC)c1OC
> 83400 nM: TGI (K-562 leukemia)
73400 nM: TGI (SF-539 CNS)
> 69400 nM: TGI (SK-OV-3 ovarian)
active: GI50 (A549 NSCLC) 26.9 nM | GI50 (SR leukemia) < 10 nM | GI50 (RXF 393 renal) 19.9 nM | GI50 (PC-3 prostate) 15.8 nM | GI50 (RPMI-8226 leukemia) 54.3 nM | GI50 (UO-31 renal) 401 nM | GI50 (IGROV1 ovarian) 87.2 nM | GI50 (HT29 colon) < 14.4 nM | GI50 (NCI-H23 lung) 25.5 nM | GI50 (SW-620 colon) < 15.9 nM | GI50 (M14 melanoma) 17.1 nM | GI50 (LOX IMVI melanoma) 87.2 nM | GI50 (SK-OV-3 ovarian) 51.8 nM | GI50 (OVCAR-3 ovarian) < 17.9 nM | GI50 (NCI-H460 lung) < 17.9 nM | GI50 (U251 CNS) 23 nM | GI50 (SF-539 CNS) 18.4 nM | GI50 (KM12 colon) < 10 nM | GI50 (HCT-15 colon) < 16.9 nM | GI50 (COLO 205 colon) < 10 nM | GI50 (SF-268 CNS) 26 nM | GI50 (HOP-62 NSCLC) 39.1 nM | GI50 (OVCAR-8 ovarian) 54.6 nM | GI50 (DU-145 prostate) 32.4 nM | GI50 (HS 578T breast) < 12.7 nM | GI50 (786-0 renal) 49.6 nM | GI50 (HCT-116 colon) < 18.1 nM | GI50 (HCC-2998 colon) < 11.6 nM | GI50 (MCF7 breast) < 10 nM | GI50 (SNB-19 CNS) 23.4 nM | GI50 (SK-MEL-5 melanoma) < 10 nM | GI50 (BT-549 breast) 62.1 nM | GI50 (K-562 leukemia) < 10 nM | GI50 (MDA-MB-231 breast) 59.5 nM | GI50 (HL-60(TB) leukemia) < 10 nM | GI50 (OVCAR-5 ovarian) 48.4 nM | GI50 (SF-295 CNS) < 10 nM | GI50 (EKVX NSCLC) 65.7 nM | GI50 (MOLT-4 leukemia) 53.8 nM | GI50 (MDA-MB-435) < 10 nM | GI50 (CAKI-1 renal) 37 nM | GI50 (SK-MEL-2 melanoma) 30.9 nM | GI50 (NCI-H522 lung) < 10 nM | GI50 (A498 renal) < 10 nM | GI50 (CCRF-CEM leukemia) 34.4 nM
5910 nM: TGI (NCI-H23 lung)
> 59000 nM: TGI (SF-268 CNS)
1540 nM: TGI (HL-60(TB) leukemia)
391 nM: TGI (COLO 205 colon)
25100 nM: TGI (HOP-62 NSCLC)
1410 nM: TGI (A498 renal)
> 38000 nM: TGI (IGROV1 ovarian)
29.7 nM: TGI (HCC-2998 colon)
inactive: GI50 (T-47D breast) > 100000 nM | GI50 (UACC-257 melanoma) > 87000 nM | GI50 (TK-10 renal) 33800 nM | GI50 (HOP-92 NSCLC) 957 nM | GI50 (SN12C renal) 1050 nM | GI50 (NCI-H226 lung) 2030 nM | GI50 (MALME-3M melanoma) > 100000 nM
16700 nM: TGI (U251 CNS)
> 34600 nM: TGI (HCT-116 colon)
> 62000 nM: TGI (NCI-H226 lung)
> 53200 nM: TGI (HCT-15 colon)
5620 nM: TGI (M14 melanoma)
> 54500 nM: TGI (UACC-62 melanoma)
> 57200 nM: TGI (ACHN renal)
> 57600 nM: TGI (MDA-MB-231 breast)
> 70600 nM: TGI (HT29 colon)
> 66900 nM: TGI (MOLT-4 leukemia)
> 100000 nM: TGI (T-47D breast) | TGI (A549 NSCLC) | TGI (UACC-257 melanoma) | TGI (TK-10 renal) | TGI (HOP-92 NSCLC) | TGI (PC-3 prostate) | TGI (RPMI-8226 leukemia) | TGI (UO-31 renal) | TGI (SW-620 colon) | TGI (SN12C renal) | TGI (OVCAR-3 ovarian) | TGI (NCI-H460 lung) | TGI (KM12 colon) | TGI (OVCAR-8 ovarian) | TGI (DU-145 prostate) | TGI (HS 578T breast) | TGI (MCF7 breast) | TGI (SNB-19 CNS) | TGI (OVCAR-4 ovarian) | TGI (BT-549 breast) | TGI (SF-295 CNS) | TGI (EKVX NSCLC) | TGI (MDA-MB-435) | TGI (CAKI-1 renal) | TGI (SK-MEL-28 melanoma) | TGI (CCRF-CEM leukemia) | TGI (MALME-3M melanoma)
51800 nM: TGI (SK-MEL-2 melanoma)
53400 nM: TGI (OVCAR-5 ovarian)
10400 nM: TGI (SR leukemia)
28900 nM: TGI (RXF 393 renal)
> 41800 nM: TGI (LOX IMVI melanoma)
18500 nM: TGI (786-0 renal)
